The values below come from ChEMBL document CHEMBL3745680, “Meroterpenoids from a Tropical Dysidea sp. Sponge” (J Nat Prod, 2015).

In brackets after ≈: the same amount, converted by molar mass.

One test has as its system Staphylococcus aureus. Put plainly: Antibacterial activity against Staphylococcus aureus ATCC 6538p after 24 hrs at 37 degC by broth dilution method. In kind it is functional.
A further test concerns A549. Kind of test: Cytotoxicity against human A549 cells assessed as reduction in cell viability after 72 hrs by MTT assay. In kind it is functional, cell-based. The conditions noted are these: A549, 72 h.
A further test has as its target T1, Sortase A (Staphylococcus aureus, UniProt Q9S446).
T1 sequence (Q9S446 whole entry): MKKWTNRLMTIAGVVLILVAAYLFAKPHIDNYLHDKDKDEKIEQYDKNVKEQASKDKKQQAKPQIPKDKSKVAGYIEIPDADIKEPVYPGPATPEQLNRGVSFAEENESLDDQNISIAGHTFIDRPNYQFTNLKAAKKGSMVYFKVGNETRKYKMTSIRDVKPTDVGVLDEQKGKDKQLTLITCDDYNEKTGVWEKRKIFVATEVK
Put plainly: Inhibition of Staphylococcus aureus ATCC 6538p sortase A expressed in Escherichia coli using dabcyl-QALPETGEE-edans as substrate incubated for 1 hr by fluorescence spectrophotometry analysis.

For the next test, the system named is Kocuria rhizophila. Put plainly: Antibacterial activity against Kocuria rhizophila NBRC 12708 after 24 hrs at 37 degC by broth dilution method. Format: functional. The conditions noted are these: NBRC 12708, 24 h.
Test [1] in a line: Inhibition of Magnaporthe grisea Guy 11 isocitrate lyase using isocitrate as substrate by spectrophotometric based glyoxylate cycle assay. Details: species or system Pyricularia grisea.
In a further test the test system is Escherichia coli. Put plainly: Antibacterial activity against Escherichia coli ATCC 35270 after 24 hrs at 37 degC by broth dilution method. Format: functional. The conditions noted are these: ATCC 35270, 24 h.
Test [2] deals with Trichophyton mentagrophytes. Put plainly: Antifungal activity against Trichophyton mentagrophytes IFO 40996 after 48 to 72 hrs at 28 degC by serial 2-fold dilution method. In kind it is functional.
In a further test the test system is Salmonella enterica. Put plainly: Antibacterial activity against Salmonella enterica ATCC 14028 after 24 hrs at 37 degC by broth dilution method. The conditions noted are these: ATCC 14028, 24 h. Format: functional.
The subject of a further test is Candida albicans. Kind of test: Antifungal activity against Candida albicans ATCC 10231 after 48 to 72 hrs at 28 degC by serial 2-fold dilution method. In kind it is functional.
For a further test, the system named is Bacillus subtilis. Kind of test: Antibacterial activity against Bacillus subtilis ATCC 6633 after 24 hrs at 37 degC by broth dilution method. Format: functional. The conditions noted are these: ATCC 6633, 24 h.
For another test, the system named is Aspergillus fumigatus. Put plainly: Antifungal activity against Aspergillus fumigatus HIC 6094 after 48 to 72 hrs at 28 degC by serial 2-fold dilution method. In kind it is functional.
The subject of the next test is K562. Kind of test: Cytotoxicity against human K562 cells assessed as reduction in cell viability after 72 hrs by MTT assay. The conditions noted are these: K562, 72 h. In kind it is functional, cell-based.
A further test deals with Proteus hauseri. Kind of test: Antibacterial activity against Proteus hauseri NBRC 3851 after 24 hrs at 37 degC by broth dilution method. Format: functional. The conditions noted are these: NBRC 3851, 24 h.
Another test deals with Trichophyton rubrum. Put plainly: Antifungal activity against Trichophyton rubrum IFO 9185 after 48 to 72 hrs at 28 degC by serial 2-fold dilution method. In kind it is functional.
For test [3], the target named is Sodium/potassium-transporting ATPase. Kind of test: Inhibition of Na+/K+ -ATPase in human intrauterine growth restriction placental membrane using 3-O-methylfluorescein phosphate by fluorometric method in presence of Kcl. In kind it is tissue-based.

For the molecule `C=C1CCC[C@H]2[C@](C)(CC3=CC(=O)C=C(N(C)CCS(=O)(=O)O)C3=O)[C@@H](C)CC[C@@]12C`, the minimum inhibitory concentration (MIC) was 128 µg/mL (≈ 285 µM) with Staphylococcus aureus; 64 µg/mL (≈ 142 µM) in the test with Kocuria rhizophila; more than 128 µg/mL against Escherichia coli; 128 µg/mL (≈ 285 µM) in [2]; 128 µg/mL (≈ 285 µM) in the test with Salmonella enterica; 128 µg/mL (≈ 285 µM) in the test with Candida albicans. Moreover, the MIC in the test on Bacillus subtilis is 64 µg/mL (≈ 142 µM); against Aspergillus fumigatus, more than 128 µg/mL; with Proteus hauseri, 128 µg/mL (≈ 285 µM); against Trichophyton rubrum it was more than 128 µg/mL. For the same molecule, the half-maximal inhibitory concentration (IC50) in the test on A549 is 6.1 µM; against Sortase A, more than 285 µM; in [1], 93.3 µg/mL (≈ 208 µM); in the test with K562, 5.7 µM; in [3], 94.5 µM.

Consider `COc1ccc2cc3[n+](cc2c1OC)CCc1cc2c(cc1-3)OCO2` [BERBERINE CHLORIDE], for which the IC50 against Sortase A was 109 µM.

For `C=C1CCC[C@H]2[C@](C)(Cc3cc(O)ccc3O)[C@@H](C)CC[C@@]12C` [ARENAROL], the minimum inhibitory concentration (MIC) is 4 µg/mL (≈ 12.7 µM) in the test on Staphylococcus aureus; 4 µg/mL (≈ 12.7 µM) against Kocuria rhizophila; more than 128 µg/mL against Escherichia coli; 8 µg/mL (≈ 25.4 µM) in test [2]; 4 µg/mL (≈ 12.7 µM) in the test on Salmonella enterica; 4 µg/mL (≈ 12.7 µM) against Candida albicans. The MIC in the test on Bacillus subtilis is 4 µg/mL (≈ 12.7 µM); against Aspergillus fumigatus, more than 128 µg/mL; in the test on Proteus hauseri it was 2 µg/mL (≈ 6.36 µM); with Trichophyton rubrum, 4 µg/mL (≈ 12.7 µM). For the same molecule, the IC50 in the test on A549 is 3.7 µM; against Sortase A it was more than 407 µM; in the test on K562, 3.4 µM; in [3] it was 11.4 µM.

Take `C=C1CCC[C@@]23C4=C(C[C@]2(C)[C@@H](C)CC[C@@]13C)C(=O)C=C(NC)C4=O`: the MIC in the test with Staphylococcus aureus is more than 128 µg/mL; against Kocuria rhizophila it was 2 µg/mL (≈ 5.89 µM); with Escherichia coli, more than 128 µg/mL; in test [2] it was 128 µg/mL (≈ 377 µM); in the test on Salmonella enterica, more than 128 µg/mL; with Candida albicans, more than 128 µg/mL. In addition, the minimum inhibitory concentration (MIC) with Bacillus subtilis, in the test with Aspergillus fumigatus, with Proteus hauseri and in the test on Trichophyton rubrum was more than 128 µg/mL throughout. In addition, the IC50 with A549 was 4.9 µM; on Sortase A it was more than 377 µM; in the test with K562, 4 µM; in test [3] it was more than 377 µM.

Regarding `C=C1CCC[C@@]23C4=C(C[C@]2(C)[C@@H](C)CC[C@@]13C)C(=O)C=C(NCCS(=O)(=O)O)C4=O`, the MIC is more than 128 µg/mL with Staphylococcus aureus; 128 µg/mL (≈ 295 µM) against Kocuria rhizophila; more than 128 µg/mL with Escherichia coli; more than 128 µg/mL in test [2]; more than 128 µg/mL with Salmonella enterica; more than 128 µg/mL in the test on Candida albicans. For the same molecule, the MIC in the test on Bacillus subtilis, against Aspergillus fumigatus, in the test with Proteus hauseri and against Trichophyton rubrum was more than 128 µg/mL each time. Further, the 50% inhibitory concentration (IC50) in the test with A549 was 2.3 µM; at Sortase A, more than 295 µM; with K562, 1.1 µM; in test [3], 285 µM.

Take `C=C1CCC[C@@]23C4=C(C[C@]2(C)[C@@H](C)CC[C@@]13C)C(=O)C(OC)=CC4=O`: the MIC was more than 128 µg/mL against Staphylococcus aureus; 8 µg/mL (≈ 23.5 µM) against Kocuria rhizophila; more than 128 µg/mL against Escherichia coli; more than 128 µg/mL in test [2]; 16 µg/mL (≈ 47 µM) in the test on Salmonella enterica; more than 128 µg/mL in the test on Candida albicans. The MIC in the test on Bacillus subtilis is 16 µg/mL (≈ 47 µM); in the test with Aspergillus fumigatus it was more than 128 µg/mL; in the test on Proteus hauseri, 16 µg/mL (≈ 47 µM); against Trichophyton rubrum, more than 128 µg/mL. The IC50 is 3.3 µM with A549, more than 128 µg/mL in test [1], 0.7 µM in the test on K562 and more than 376 µM in test [3].

On to `C[C@@H]1[C@H](O)[C@@H](C)/C=C/C=C/C=C/C=C/C=C/C=C/C=C/[C@H](O[C@@H]2O[C@H](C)[C@@H](O)[C@H](N)[C@@H]2O)C[C@@H]2O[C@](O)(C[C@@H](O)C[C@@H](O)[C@H](O)CC[C@@H](O)C[C@@H](O)CC(=O)O[C@H]1C)C[C@H](O)[C@H]2C(=O)O` [AMPHOTERICIN B], for which the minimum inhibitory concentration (MIC) stood at 4 µg/mL (≈ 4.33 µM) in test [2], 0.5 µg/mL (≈ 0.541 µM) with Candida albicans, 8 µg/mL (≈ 8.66 µM) in the test with Aspergillus fumigatus and 1 µg/mL (≈ 1.08 µM) with Trichophyton rubrum.

In the case of `CC1(C)S[C@@H]2[C@H](NC(=O)[C@H](N)c3ccccc3)C(=O)N2[C@H]1C(=O)O` [AMPICILLIN], the minimal inhibitory concentration (MIC) against Staphylococcus aureus was 0.13 µg/mL (≈ 0.372 µM); in the test on Kocuria rhizophila, less than 0.06 µg/mL; against Escherichia coli it was 4 µg/mL (≈ 11.4 µM); in the test with Salmonella enterica, 0.06 µg/mL (≈ 0.172 µM); in the test on Bacillus subtilis, less than 0.06 µg/mL; with Proteus hauseri, less than 0.06 µg/mL.

For the molecule `O=C(O)CC[N+](=O)[O-]`, the IC50 in test [1] is 2.5 µg/mL (≈ 21 µM).

`C=C1CCC[C@@]23Oc4ccc(O)cc4C[C@]2(C)[C@@H](C)CC[C@@]13C`: the minimal inhibitory concentration (MIC) against Staphylococcus aureus was 2 µg/mL (≈ 6.4 µM); with Kocuria rhizophila, 1 µg/mL (≈ 3.2 µM); against Escherichia coli it was more than 128 µg/mL; in test [2] it was 8 µg/mL (≈ 25.6 µM); with Salmonella enterica, 1 µg/mL (≈ 3.2 µM); in the test on Candida albicans it was more than 128 µg/mL. Also, the MIC is 1 µg/mL (≈ 3.2 µM) against Bacillus subtilis, more than 128 µg/mL against Aspergillus fumigatus, 2 µg/mL (≈ 6.4 µM) against Proteus hauseri and more than 128 µg/mL against Trichophyton rubrum. In addition, the IC50 in the test on A549 was 5.9 µM; against Sortase A, more than 410 µM; with K562, 4.8 µM; in test [3] it was 69.1 µM.

In the case of `C=C1CCC[C@H]2[C@](C)(CC3=CC(=O)C=C(NCCS(=O)(=O)O)C3=O)[C@@H](C)CC[C@@]12C`, the MIC against Staphylococcus aureus was 64 µg/mL (≈ 147 µM); with Kocuria rhizophila, 8 µg/mL (≈ 18.4 µM); against Escherichia coli, more than 128 µg/mL; in test [2], 128 µg/mL (≈ 294 µM); against Salmonella enterica it was 32 µg/mL (≈ 73.5 µM); with Candida albicans, 16 µg/mL (≈ 36.7 µM). Besides, the MIC in the test with Bacillus subtilis is 32 µg/mL (≈ 73.5 µM); with Aspergillus fumigatus, more than 128 µg/mL; against Proteus hauseri, 32 µg/mL (≈ 73.5 µM); in the test on Trichophyton rubrum, more than 128 µg/mL. Besides, the IC50 in the test with A549 is 4.2 µM; at Sortase A it was 272 µM; in test [1], 43.5 µg/mL (≈ 99.9 µM); in the test with K562, 6.9 µM; in [3], 82.2 µM.
